Experiments:
[1] = system: Dm-LS-2 (DNA, aptamer, HFNAP: side-chain on 5' nucleobase of each coding trinucleotide, positions 19,22,25,...,61 (codon key Figure 1B)) GAAAGCAGGACTGGAGATCCGCGCCGCTTTTATCCCTGTCCCCGCTACCCGTATCCCTCCTTGCAGACCGAACTAGAGCTT; assay: microscale thermophoresis; details: 5 mM KCl, 1 mM MgCl2, 1 mM CaCl2 added; HBS-P+ buffer, 25 °C
[2] = system: Dm-HS-1 TCC ∆ s.c. (DNA, aptamer, no side-chain at 52 (codon 12 TCC); others as HFNAP: fluorophenyl at 19; allylamine at 22, 25, 37; alcohol at 28, 34, 49; phenol at 31, 46; cyclopentyl at 40; cyclopropyl at 43, 58; imidazole at 55, 61) GAAAGCAGGACTGGAGATCGATTCTGGTGCTGTTGATCTCCGCCATTGTGCTCCTACCCTTCACAGACCGAACTAGAGCTT; assay: microscale thermophoresis; details: 5 mM KCl, 1 mM MgCl2, 1 mM CaCl2 added to HBS-P+; HBS-P+ buffer, 25 °C
[3] = system: Dm-reference-based-random-after-selection-1 (DNA, other, HFNAP: side-chain on 5' nucleobase of each coding trinucleotide, positions 19,22,25,...,61 (codon key Figure 1B)) GAAAGCAGGACTGGAGATCCATGTCCACCGTACCGCTACTGCTACTATTTGCTTCGGTACTGTCAGACCGAACTAGAGCTT; assay: microscale thermophoresis; details: 5 mM KCl, 1 mM MgCl2, 1 mM CaCl2 added; HBS-P+ buffer, 25 °C
[4] = system: Dm-HS-1 TTG ∆ s.c. (DNA, aptamer, no side-chain at 46 (codon 10 TTG); others as HFNAP: fluorophenyl at 19; allylamine at 22, 25, 37; alcohol at 28, 34, 49; phenol at 31; cyclopentyl at 40; cyclopropyl at 43, 58; imidazole at 52, 55, 61) GAAAGCAGGACTGGAGATCGATTCTGGTGCTGTTGATCTCCGCCATTGTGCTCCTACCCTTCACAGACCGAACTAGAGCTT; assay: microscale thermophoresis; details: 5 mM KCl, 1 mM MgCl2, 1 mM CaCl2 added to HBS-P+; HBS-P+ buffer, 25 °C
[5] = system: Dm-HS-1 TCT ∆ s.c. (DNA, aptamer, no side-chain at 37 (codon 7 TCT); others as HFNAP: fluorophenyl at 19; allylamine at 22, 25; alcohol at 28, 34, 49; phenol at 31, 46; cyclopentyl at 40; cyclopropyl at 43, 58; imidazole at 52, 55, 61) GAAAGCAGGACTGGAGATCGATTCTGGTGCTGTTGATCTCCGCCATTGTGCTCCTACCCTTCACAGACCGAACTAGAGCTT; assay: microscale thermophoresis; details: 5 mM KCl, 1 mM MgCl2, 1 mM CaCl2 added to HBS-P+; HBS-P+ buffer, 25 °C
[6] = system: Dm-HS-9 (DNA, aptamer, HFNAP: side-chain on 5' nucleobase of each coding trinucleotide, positions 19,22,25,...,61 (codon key Figure 1B)) GAAAGCAGGACTGGAGATCGATTATTGTGATTTTGATCTCCCCCATATCCCCTTCCCTACTCGCAGACCGAACTAGAGCTT; assay: microscale thermophoresis; details: 5 mM KCl, 1 mM MgCl2, 1 mM CaCl2 added; HBS-P+ buffer, 25 °C
[7] = system: Dm-HS-2 (DNA, aptamer, HFNAP: side-chain on 5' nucleobase of each coding trinucleotide, positions 19,22,25,...,61 (codon key Figure 1B)) GAAAGCAGGACTGGAGATCTATGGTCGCATCGTTGACCCTTGTCCTGCCCCTGTCTCTCTCAACAGACCGAACTAGAGCTT; assay: microscale thermophoresis; details: 5 mM KCl, 1 mM MgCl2, 1 mM CaCl2 added; HBS-P+ buffer, 25 °C
[8] = system: Dm-HS-5 ∆ s.c. (DNA, aptamer, none (no side-chains)) GAAAGCAGGACTGGAGATCGATTCTGGTGCTGTTGATCTCCGCCATTGTGCTCCTGCCCTTCACAGACCGAACTAGAGCTT; assay: microscale thermophoresis; details: 5 mM KCl, 1 mM MgCl2, 1 mM CaCl2 added; HBS-P+ buffer, 25 °C
[9] = system: Dm-HS-1 (DNA, aptamer, HFNAP, side-chains on nucleobases: fluorophenyl at 19; allylamine at 22, 25, 37; alcohol at 28, 34, 49; phenol at 31, 46; cyclopentyl at 40; cyclopropyl at 43, 58; imidazole at 52, 55, 61) GAAAGCAGGACTGGAGATCGATTCTGGTGCTGTTGATCTCCGCCATTGTGCTCCTACCCTTCACAGACCGAACTAGAGCTT; assay: gel filtration, radiolabelled ligand; details: 140 mM NaCl, 5 mM KCl, 1 mM MgCl2, 1 mM CaCl2; 20 mM Tris-HCl pH 7.4, 0.05% Tween 20, 25 °C; [3H]-daunomycin mixed with unlabelled; control sequence subtracted
[10] = system: Dm-HS-4 (DNA, aptamer, HFNAP: side-chain on 5' nucleobase of each coding trinucleotide, positions 19,22,25,...,61 (codon key Figure 1B)) GAAAGCAGGACTGGAGATCGATTCTGGTGCTGTTGATCTCCGCCATTGTGCTCCTACCCTTCGCAGACCGAACTAGAGCTT; assay: microscale thermophoresis; details: 5 mM KCl, 1 mM MgCl2, 1 mM CaCl2 added; HBS-P+ buffer, 25 °C
[11] = system: Dm-CCS-1 (DNA, aptamer, HFNAP: side-chain on 5' nucleobase of each coding trinucleotide, positions 19,22,25,...,61 (codon key Figure 1B)) GAAAGCAGGACTGGAGATCCTTAATGGCAGCTCCAGCCCTAACCCTGCTGCTGCCTCTGCTGTCAGACCGAACTAGAGCTT; assay: microscale thermophoresis; details: 5 mM KCl, 1 mM MgCl2, 1 mM CaCl2 added; HBS-P+ buffer, 25 °C
[12] = system: Dm-HS-1 ∆ s.c. (DNA, aptamer, none (no side-chains)) GAAAGCAGGACTGGAGATCGATTCTGGTGCTGTTGATCTCCGCCATTGTGCTCCTACCCTTCACAGACCGAACTAGAGCTT; assay: microscale thermophoresis; details: 5 mM KCl, 1 mM MgCl2, 1 mM CaCl2 added; HBS-P+ buffer, 25 °C
[13] = system: Dm-LS-4 (DNA, aptamer, HFNAP: side-chain on 5' nucleobase of each coding trinucleotide, positions 19,22,25,...,61 (codon key Figure 1B)) GAAAGCAGGACTGGAGATCCGCGCCGCTTTTATCCCTAGTCCCTCTTACCCTACTTCCCCTTACAGACCGAACTAGAGCTT; assay: microscale thermophoresis; details: 5 mM KCl, 1 mM MgCl2, 1 mM CaCl2 added; HBS-P+ buffer, 25 °C
[14] = system: Dm-HS-6 ∆ s.c. (DNA, aptamer, none (no side-chains)) GAAAGCAGGACTGGAGATTGGTAGTAACTGCTGTCCTGCTAATCATGCCGTTCACGCTGACCTCAGACCGAACTAGAGCTT; assay: microscale thermophoresis; details: 5 mM KCl, 1 mM MgCl2, 1 mM CaCl2 added; HBS-P+ buffer, 25 °C

COc1cccc2c1C(=O)c1c(O)c3c(c(O)c1C2=O)C[C@@](O)(C(C)=O)C[C@@H]3O[C@H]1C[C@H](N)[C@H](O)[C@H](C)O1
Kd [1]: 970 ± 60 nM | Kd [2]: 29.9 ± 10.2 nM | Kd [3]: 63600 ± 2400 nM | Kd [4]: 32.6 ± 5.0 nM | Kd [5]: 12.9 ± 1.5 nM | Kd [6]: 1.13 ± 0.45 nM | Kd [7]: 4.77 ± 1.0 nM | Kd ∆ side-chains [8]: 4500 ± 210 nM | Kd [9]: 12.6 ± 3.5 nM | Kd [10]: 2.05 ± 0.65 nM | Kd [11]: 16.7 ± 6.0 nM | Kd ∆ side-chains [12]: 2610 ± 190 nM | Kd [13]: 1980 ± 70 nM | Kd ∆ side-chains [14]: 1510 ± 65 nM

— PMC9352670 (2022)
